From patent US11267815B2, “Class of amino-substituted nitrogen-containing fused ring compounds, preparation method therefor, and use thereof” (SHANGHAI RINGENE BIOPHARMA CO., LTD., priority 2017, dated 2022) come the findings set out here.

SMILES strings stand for the structures. Read-outs that look alike come from different tables or passages of the source.

Experiment [1] deals with FGFR4 (Homo sapiens (Human), UniProt P22455). The experiment in a line: Inhibitory activity on kinase FGFR4 (Caliper mobility shift). It counts as biochemical. On the procedure:
(1). Preparation of 1×Kinase buffer; (2) Preparation of the gradient concentrations of the compounds: the concentration of the compounds to be tested started from 10 μM, which was 3-fold diluted to prepare 10 dilutions, and then tested in duplicated wells. The compounds were 100-fold serially diluted into 10 dilutions with different final concentrations in 96-well plates, each of which was further diluted with 1×Kinase buffer to prepare an intermediate dilution having a concentration of 5 times the final concentration; (3) adding 5 μL of each of the prepared compound solution into the compound wells of 384-well plates, and each concentration set single well; adding 5 μL of 5% DMSO into negative control wells and positive control wells respectively; (4) preparing a kinase solution having a concentration of 2.5 times the final concentration with 1×kinase buffer; (5) adding 10 μL of kinase solution at a concentration of 2.5 times the final concentration into the compound wells and the positive control wells respectively; and adding 10 μL of 1×Kinase buffer into the negative control wells; (6) centrifuging at 1000 rpm for 30 seconds, and incubating at room temperature for 10 minutes after shaking and mixing evenly; (7) preparing a mixed solution of ATP and Kinase substrate 22 having a concentration of 2.5 times the final concentration with 1×Kinase Buffer; (8) adding 10 μL of the mixed solution of ATP and substrate at a concentration of 2.5 times the final concentration to initiate the reaction; (9) Centrifuging the 384-well plates at 1000 rpm for 30 seconds, and incubating at 28° C. for corresponding time respectively after shaking and mixing; (10) adding 30 μL of stop detection solution to stop the kinase reaction, centrifuging at 1000 rpm for 30 seconds, and shaking and mixing the mixture evenly; (11) reading the conversion rate by Caliper Ezreader II. The dose-effect curve was fitted by the log (inhibitor) vs. response-variable slope of GraphPad Prism 5 with the log value of concentration as the X axis and the percentage inhibition rate as the Y axis, then the IC50 value of each compound on the enzyme activity was obtained.

Experiment [2] deals with xenograft tumors. Kind of experiment: Xenograft tumor growth in nude mice. It counts as in vivo. The settings on record: oral, daily for three weeks, lower dose (even less than 20 mg/kg). How it is done: 1. The tumor tissue in vigorous growth period was cut into about 1.5 mm^3, and subcutaneously inoculated into the right armpit of nude mice under sterile condition. The diameter of the subcutaneous transplanted tumors in nude mice was measured with vernier caliper, and the animals were randomly divided into groups when the average volume of the tumor reached about 130 mm^3. The embodiment compounds (prepared to the desired concentration with water for injection containing 1% Tween 80 for later use) were orally administered at a predetermined dose every day for three weeks, while a same amount of menstruum was administered in the menstruum control group. During the whole experiment, the diameter of the xenograft tumor was measured twice a week and the weight of the mice was weighed at the same time. The tumor volume (TV) was calculated by the formula: TV=½×a×b^2, where a and b represent length and width respectively. According to the measured results, the relative tumor volume (RTV) was calculated by the formula: RTV=Vt/V0, where V0 was the tumor volume measured when the mice were divided into cages for administration (i.e., d0) and Vt was the tumor volume at each measurement. […]

The subject of experiment [3] is various tumor cells (HuH-7, SNU-16, KG1, UM-UC-14, RT-112 etc.). The experiment in a line: Proliferation inhibitory activity on various tumor cells (SRB or CCK8). The format is cell-based. The settings on record: SRB or CCK8 method; read-out: proliferation inhibitory activities on various tumor cells.

Chain of FGFR4 (P22455 22-802): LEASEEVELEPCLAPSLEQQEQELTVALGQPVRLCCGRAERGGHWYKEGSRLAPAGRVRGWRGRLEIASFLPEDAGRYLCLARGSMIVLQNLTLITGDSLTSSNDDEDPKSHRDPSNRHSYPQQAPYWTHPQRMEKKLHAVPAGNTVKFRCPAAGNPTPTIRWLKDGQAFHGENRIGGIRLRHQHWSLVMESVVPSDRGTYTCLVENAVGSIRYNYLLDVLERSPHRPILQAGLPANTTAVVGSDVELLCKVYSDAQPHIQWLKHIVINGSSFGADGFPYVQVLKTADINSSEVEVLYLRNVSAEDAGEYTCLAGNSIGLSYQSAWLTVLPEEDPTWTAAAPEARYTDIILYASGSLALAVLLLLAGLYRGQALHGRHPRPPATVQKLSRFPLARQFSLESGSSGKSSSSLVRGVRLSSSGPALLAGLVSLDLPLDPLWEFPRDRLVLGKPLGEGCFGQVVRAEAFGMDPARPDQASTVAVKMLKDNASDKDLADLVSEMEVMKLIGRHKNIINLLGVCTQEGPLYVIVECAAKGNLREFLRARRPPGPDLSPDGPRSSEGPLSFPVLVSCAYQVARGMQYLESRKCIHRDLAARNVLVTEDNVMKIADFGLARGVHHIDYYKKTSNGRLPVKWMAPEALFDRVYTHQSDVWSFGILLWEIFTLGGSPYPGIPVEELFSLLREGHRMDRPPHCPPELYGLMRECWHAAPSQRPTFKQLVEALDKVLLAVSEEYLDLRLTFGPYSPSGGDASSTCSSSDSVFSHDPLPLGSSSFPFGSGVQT

For the compound `C=CC(=O)N1CCN(CCCc2cn3c(n2)c(-c2c(Cl)c(OC)cc(OC)c2Cl)cc2cnc(NC)nc23)CC1` [Embodiment 3, 1-(4-(3-(6-(2,6-dichloro-3,5-dimethoxyaniline)-2-(methylamine)imidazo[1′,2′:1,6]pyrido[2,3-d]pyrimidin-8-yl)propyl)piperazine-1-yl)prop-2-en-1-one], the IC50 in experiment [1] (read-out: FGFR4 IC50) was under 20 nM; in experiment [1] (read-out: IC50 of inhibitory activity on FGFR4), under 1 nM; in experiment [3], under 100 nM. In addition, the anti-tumor rate entry in experiment [2] is “more than 80%”.
